Molecules are shown by their SMILES. A value given as a limit tells only on which side of the number the result lay.

Test [1] concerns the target T1, Recombinant STAT3 protein (STAT3(G127-I722)) (Homo sapiens, UniProt P40763).
T1 construct: Recombinant STAT3 protein (STAT3(G127-I722))
Nature of the test: STAT3 Fluorescence Polarization (FP) Assay. As to conditions: 25 nM STAT3(G127-I722), 2 nM 5-FAM-GpYLPQTV-NH2 probe, pH 7.4, 45-minute incubation at room temperature. In kind it is binding. The procedure: An FP assay was developed to determine IC50 values for test substances. Recombinant STAT3 protein (STAT3(G127-I722)) at 25 nM was combined with a fluorescently labeled, phosphotyrosine peptide probe (5-FAM-GpYLPQTV-NH2) at 2 nM in FP buffer (10 mM HEPES pH 7.4, 50 mM NaCl. 1 mM EDTA, 0.05% Tween 20, 2 mM DTT). 50 μL of STAT3-probe mixture was added to serial diluted compounds in black, 96-well plates (Greiner BioOne 655076) to a final concentration of 1% DMSO. Reaction components were mixed, and FP was measured after 45-minute incubation at room temperature using a Tecan Spark multimode plate reader. FP signal (mP) was plotted against the log concentration of the test substances and IC50 values were calculated by nonlinear regression analysis using GraphPad Prism software. For STAT3 FP assay, A=≤100 nM; B=>100-1000 nM; C=>1-10 μM; and D=>10 μM.
(Polarisation of emitted light reports the rotation of a fluorescent probe.)

The target of test [2] is T2, Recombinant STAT6 protein (STAT6(W123-T658)) (Homo sapiens, UniProt P42226).
T2 construct: Recombinant STAT6 protein (STAT6(W123-T658))
T2 sequence (P42226 123-658): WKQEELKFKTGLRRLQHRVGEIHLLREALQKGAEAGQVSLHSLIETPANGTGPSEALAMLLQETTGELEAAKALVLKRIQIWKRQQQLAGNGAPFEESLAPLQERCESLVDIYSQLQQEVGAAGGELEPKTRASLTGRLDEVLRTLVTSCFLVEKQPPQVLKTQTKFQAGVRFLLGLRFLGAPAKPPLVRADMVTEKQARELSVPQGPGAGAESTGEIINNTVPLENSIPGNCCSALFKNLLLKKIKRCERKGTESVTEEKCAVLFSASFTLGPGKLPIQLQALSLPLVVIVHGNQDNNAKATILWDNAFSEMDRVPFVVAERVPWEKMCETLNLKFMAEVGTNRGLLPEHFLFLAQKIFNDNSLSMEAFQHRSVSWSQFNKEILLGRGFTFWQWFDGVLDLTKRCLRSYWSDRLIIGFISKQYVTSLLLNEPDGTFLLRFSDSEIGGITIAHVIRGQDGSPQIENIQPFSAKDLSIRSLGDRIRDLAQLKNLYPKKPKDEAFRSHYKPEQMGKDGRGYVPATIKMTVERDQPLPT
Briefly: STAT6 Fluorescence Polarization (FP) Assay. As to conditions: 250 nM STAT6(W123-T658), 2 nM 5-FAM-Ap[…]-NH2 probe, pH 7.4, 45-minute incubation at room temperature. The test is classed as binding. On the procedure:
An FP assay was developed to determine IC50 values for test substances. Recombinant STAT6 protein (STAT6(W123-T658)) at 250 nM was combined with a fluorescently labeled, phosphotyrosine peptide probe (5-FAM-Ap[…]-NH2) at 2 nM in FP buffer (10 mM HEPES pH 7.4, 50 mM NaCl, 1 mM EDTA, 0.05% Tween 20, 2 mM DTT). 50 μL of STAT6-probe mixture was added to serial diluted compounds in black, 96-well plates (Greiner BioOne 655076) to a final concentration of 1% DMSO. Reaction components were mixed, and FP w as measured after 45-minute incubation at room temperature using a Tecan Spark multimode plate reader. FP signal (mP) was plotted against the log concentration of the test substances and IC50 values were calculated by nonlinear regression analysis using GraphPad Prism software. For STAT6 FP assay. A=≤300 nM; B=>300-3000 nM; C=>3-30 μM; and D=>30 μM.

Test [3] concerns pSTAT6 (pY641-STAT6) in PBMC. Briefly: MSD-pSTAT-PBMC Assay (pSTAT6). In kind it is cell-based. As to conditions: compound 3 hrs, then 1 ng/mL IL-4 for 10 min. From the text: Cryopreserved Peripheral Blood Mononuclear Cells (PBMC) are from AllCells. Recombinant Human […] and IL-6 are from Peprotech. Mouse monoclonal anti-STAT3 antibody, rabbit monoclonal anti-pY705-STAT3 antibody, rabbit monoclonal Anti-pY641-STAT6 antibody, and lysis buffer are from Cell Signaling Technology (CST). Mouse monoclonal anti-STAT6 antibody is from BioLegend. Assay plates, blocker, and anti-rabbit secondary antibody are from Meso Scale Discovery (MSD).
Cryopreserved PBMCs were thawed out and allowed to recover overnight in IMDM+10% heat-inactivated FBS prior to plating 50,000 (STAT3) or 25,000 (STAT6) cells per well in 96-well U-bottom tissue culture plates. Cells were treated with compound for 3 hrs, then stimulated with 10 ng/mL IL-6 (STAT3) or 1 ng/mL IL-4 (STAT6) for 10 min. Cells were then spun down and washed with ice-cold PBS prior to lysing the cell pellet with 1× lysis buffer (CST) with 1× HALT protease and phosphatase inhibitor cocktail (Thermo). Lysates were transferred to and incubated overnight at 4° C. with shaking in QuickPlex 96-well high bind assay plates (MSD) pre-coated overnight with 30 μL per well of 0.6 μg/mL mouse monoclonal anti-STAT3 antibody (STAT3) or 2 μg/mL mouse monoclonal anti-STAT6 antibody (STAT6) in 1×PBS, and pre-blocked for 1 hour with 3% Blocker-A (MSD). Captured protein in the assay plates were then washed and probed with 25 μL per well of 0.25 μg/ml rabbit monoclonal anti-pY705-STAT3 antibody (STAT3) or 0.18 μg/ml rabbit monoclonal Anti-pY641-STAT6 antibody (STAT6) in 1% Blocker-A for 1 hour at room temperature with shaking, then washed and probed with 25 ul per well of 1 ug/ml Sulfo-TAG Labeled Goat Anti-Rabbit Antibody (MSD) in 1% Blocker-A for 1 hour at room temperature with shaking. Assay plates were then washed and 150 μL of 1× Read Buffer-T (MSD) was added to each well prior to reading on an SQ120 MSD Plate Reader. Assay signal from each sample was subtracted by the signal from unstimulated control wells and normalized to DMSO control wells, IC50 values were calculated using Graph Pad Prism Dose-Response Nonlinear Regression with variable slope. For both pSTAT3 and pSTAT6 A=≤100 nM; B=>100-1000 nM; C=>1000-3000 nM; and D=>3 μM.

T1 sequence (P40763 127-722): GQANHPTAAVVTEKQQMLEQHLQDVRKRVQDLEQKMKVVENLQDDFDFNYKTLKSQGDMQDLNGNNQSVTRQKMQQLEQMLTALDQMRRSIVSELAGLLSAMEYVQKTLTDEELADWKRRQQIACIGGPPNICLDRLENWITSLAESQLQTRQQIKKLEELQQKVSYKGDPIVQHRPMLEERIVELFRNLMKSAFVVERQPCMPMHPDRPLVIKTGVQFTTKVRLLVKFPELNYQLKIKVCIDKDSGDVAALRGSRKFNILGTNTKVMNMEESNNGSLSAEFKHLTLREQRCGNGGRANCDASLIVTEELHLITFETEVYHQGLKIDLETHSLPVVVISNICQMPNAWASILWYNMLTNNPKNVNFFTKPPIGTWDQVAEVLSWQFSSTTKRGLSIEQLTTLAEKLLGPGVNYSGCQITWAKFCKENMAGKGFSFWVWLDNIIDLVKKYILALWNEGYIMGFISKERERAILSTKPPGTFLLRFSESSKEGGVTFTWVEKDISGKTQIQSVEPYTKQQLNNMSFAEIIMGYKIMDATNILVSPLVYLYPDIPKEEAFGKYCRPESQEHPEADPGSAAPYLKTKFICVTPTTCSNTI

Take `N#CC1CN(C(=O)C2CCC3CC4CC4CC(NC(=O)c4cc5cc(C(F)(F)P(=O)(O)O)ccc5s4)C(=O)N32)CC1c1cccc(OCCCCOc2ccc(C3CCC(=O)NC3=O)cc2)c1` [Compound 3, ((2-(((3S,6S,7aS,8aR,9aR)-3-((rel-3S,4R)-3-cyano-4-(3-(4-(4-(2,6-dioxopiperidin-3-yl)phenoxy)butoxy)phenyl)pyrrolidine-1-carbonyl)-5-oxodecahydro-1H-cyclopropa[d]pyrrolo[1,2-a]azocin-6-yl)carbamoyl)benzo[b]thiophen-5-yl)difluoromethyl)phosphonic acid]: the IC50 in test [1] is 1000 to 10000 nM; in test [2], 300 to 3000 nM; in test [3], more than 3000 nM.
In the same order, the values of `O=C1CCC(N2Cc3c(C#CCCCCCCn4ccc([C@@H]5CN(C(=O)[C@@H]6CC[C@@H]7C[C@H]8C[C@H]8C[C@H](NC(=O)c8cc9cc(C(F)(F)P(=O)(O)O)ccc9s8)C(=O)N76)C6(CC6)C5)cc4=O)cccc3C2=O)C(=O)N1` (stereo partly drawn) [Compound 5, ((2-(((3S,6S,7aS,8aR,9aR)-3-((6R)-6-(1-(8-(2-(2,6-dioxopiperidin-3-yl)-1-oxoisoindolin-4-yl)oct-7-yn-1-yl)-2-oxo-1,2-dihydropyridin-4-yl)-4-azaspiro[2.4]heptane-4-carbonyl)-5-oxodecahydro-1H-cyclopropa[d]pyrrolo[1,2-a]azocin-6-yl)carbamoyl)benzo[b]thiophen-5-yl)difluoromethyl)phosphonic acid] are 100 to 1000 nM, 300 to 3000 nM and 100 to 1000 nM.
Turning to `N#CC1CN(C(=O)C2CCC3CC4CC4CC(NC(=O)c4cc5cc(C(F)(F)P(=O)(O)O)ccc5s4)C(=O)N32)CC1c1cccc(OCCCCCC#Cc2cccc3c2CN(C2CCC(=O)NC2=O)C3=O)c1` [Compound 7, ((2-(((3S,6S,7aS,8aR,9aR)-3-((rel-3S,4R)-3-cyano-4-(3-((7-(2-(2,6-dioxopiperidin-3-yl)-1-oxoisoindolin-4-yl)hept-6-yn-1-yl)oxy)phenyl)pyrrolidine-1-carbonyl)-5-oxodecahydro-1H-cyclopropa[d]pyrrolo[1,2-a]azocin-6-yl)carbamoyl)benzo[b]thiophen-5-yl)difluoromethyl)phosphonic acid], the IC50 was 100 to 1000 nM in test [1], 300 to 3000 nM in test [2] and more than 3000 nM in test [3].
For `O=C1CCC(c2ccc(OCCCCCn3ccc([C@@H]4CN(C(=O)[C@@H]5CC[C@@H]6C[C@H]7C[C@H]7C[C@H](NC(=O)c7cc8cc(C(F)(F)P(=O)(O)O)ccc8s7)C(=O)N65)C5(CC5)C4)cc3=O)cc2)C(=O)N1` (stereo partly drawn) [Compound 10, ((2-(((3S,6S,7aS,8aR,9aR)-3-((6R)-6-(1-(5-(4-(2,6-dioxopiperidin-3-yl)phenoxy)pentyl)-2-oxo-1,2-dihydropyridin-4-yl)-4-azaspiro[2.4]heptane-4-carbonyl)-5-oxodecahydro-1H-cyclopropa[d]pyrrolo[1,2-a]azocin-6-yl)carbamoyl)benzo[b]thiophen-5-yl)difluoromethyl)phosphonic acid], the figures for the IC50 in test [1], in test [2] and in test [3] were 100 to 1000 nM, less than 300 nM and 1000 to 3000 nM, respectively.
For `N#CC1CN(C(=O)C2CCC3CC4CC4CC(NC(=O)c4cc5cc(C(F)(F)P(=O)(O)O)ccc5s4)C(=O)N32)CC1c1cccc(N2CCN(c3ccc4c(c3)[nH]c(=O)n4C3CCC(=O)NC3=O)CC2)c1` [Compound 13, ((2-(((3S,6S,7aS,8aR,9aR)-3-((rel-3S,4R)-3-cyano-4-(3-(4-(1-(2,6-dioxopiperidin-3-yl)-2-oxo-2,3-dihydro-1H-benzo[d]imidazol-5-yl)piperazin-1-yl)phenyl)pyrrolidine-1-carbonyl)-5-oxodecahydro-1H-cyclopropa[d]pyrrolo[1,2-a]azocin-6-yl)carbamoyl)benzo[b]thiophen-5-yl)difluoromethyl)phosphonic acid], the figures for the IC50 in test [1], in test [2] and in test [3] were 100 to 1000 nM, less than 300 nM and 100 to 1000 nM, respectively.
`N#CC1CN(C(=O)C2CCC3CC4CC4CC(NC(=O)c4cc5cc(C(F)(F)P(=O)(O)O)ccc5s4)C(=O)N32)CC1c1cccc(OCCOCCOc2cccc3c2CN(C2CCC(=O)NC2=O)C3=O)c1` [Compound 15, ((2-(((3S,6S,7aS,8aR,9aR)-3-((rel-3S,4R)-3-cyano-4-(3-(2-(2-((2-(2,6-dioxopiperidin-3-yl)-1-oxoisoindolin-4-yl)oxy)ethoxy)ethoxy)phenyl)pyrrolidine-1-carbonyl)-5-oxodecahydro-1H-cyclopropa[d]pyrrolo[1,2-a]azocin-6-yl)carbamoyl)benzo[b]thiophen-5-yl)difluoromethyl)phosphonic acid]: the IC50 in test [1] was 100 to 1000 nM; in test [2], less than 300 nM; in test [3], more than 3000 nM.
In the same order, the values of `O=C1CCC(N2Cc3c(OCCOCCOCCn4ccc([C@@H]5CN(C(=O)[C@@H]6CC[C@@H]7C[C@H]8C[C@H]8C[C@H](NC(=O)c8cc9cc(C(F)(F)P(=O)(O)O)ccc9s8)C(=O)N76)C6(CC6)C5)cc4=O)cccc3C2=O)C(=O)N1` (stereo partly drawn) [Compound 17, ((2-(((3S,6S,7aS,8aR,9aR)-3-((6R)-6-(1-(2-(2-(2-((2-(2,6-dioxopiperidin-3-yl)-1-oxoisoindolin-4-yl)oxy)ethoxy)ethoxy)ethyl)-2-oxo-1,2-dihydropyridin-4-yl)-4-azaspiro[2.4]heptane-4-carbonyl)-5-oxodecahydro-1H-cyclopropa[d]pyrrolo[1,2-a]azocin-6-yl)carbamoyl)benzo[b]thiophen-5-yl)difluoromethyl)phosphonic acid] are 1000 to 10000 nM, 300 to 3000 nM and more than 3000 nM.

By IC50 is commonly meant the point on the concentration scale where inhibition reaches its midpoint.
